Laboratory results taken from PubChem BioAssay (NCI).
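Method: 48-hour compound exposure of cells in 96-well plates, five concentrations, linear interpolation of endpoints. TGI denotes the concentration required for complete inhibition of growth.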

Experiments:
Assay in all cases: NCI-60 cell line screen, 48 h
A549 NSCLC = tested on: A549 NSCLC
SF-539 CNS = tested on: SF-539 CNS
A498 renal = tested on: A498 renal
SF-268 CNS = tested on: SF-268 CNS
MDA-N = tested on: MDA-N
MDA-MB-435 = tested on: MDA-MB-435
SK-MEL-5 melanoma = tested on: SK-MEL-5 melanoma
MOLT-4 leukemia = tested on: MOLT-4 leukemia
SR leukemia = tested on: SR leukemia
HS 578T breast = tested on: HS 578T breast
KM12 colon = tested on: KM12 colon
MALME-3M melanoma = tested on: MALME-3M melanoma
SK-MEL-28 melanoma = tested on: SK-MEL-28 melanoma
TK-10 renal = tested on: TK-10 renal
CCRF-CEM leukemia = tested on: CCRF-CEM leukemia
DU-145 prostate = tested on: DU-145 prostate
NCI-H23 lung = tested on: NCI-H23 lung
UO-31 renal = tested on: UO-31 renal
SN12C renal = tested on: SN12C renal
M14 melanoma = tested on: M14 melanoma
U251 CNS = tested on: U251 CNS
MCF7 breast = tested on: MCF7 breast
NCI-H522 lung = tested on: NCI-H522 lung
HOP-92 NSCLC = tested on: HOP-92 NSCLC
K-562 leukemia = tested on: K-562 leukemia
HCC-2998 colon = tested on: HCC-2998 colon
UACC-62 melanoma = tested on: UACC-62 melanoma
HOP-62 NSCLC = tested on: HOP-62 NSCLC
SK-MEL-2 melanoma = tested on: SK-MEL-2 melanoma
PC-3 prostate = tested on: PC-3 prostate
RPMI-8226 leukemia = tested on: RPMI-8226 leukemia
OVCAR-3 ovarian = tested on: OVCAR-3 ovarian
NCI-H226 lung = tested on: NCI-H226 lung
HT29 colon = tested on: HT29 colon
EKVX NSCLC = tested on: EKVX NSCLC
786-0 renal = tested on: 786-0 renal
RXF 393 renal = tested on: RXF 393 renal
OVCAR-4 ovarian = tested on: OVCAR-4 ovarian
HL-60(TB) leukemia = tested on: HL-60(TB) leukemia
OVCAR-8 ovarian = tested on: OVCAR-8 ovarian
SW-620 colon = tested on: SW-620 colon
T-47D breast = tested on: T-47D breast
ACHN renal = tested on: ACHN renal
HCT-116 colon = tested on: HCT-116 colon
SNB-19 CNS = tested on: SNB-19 CNS
HCT-15 colon = tested on: HCT-15 colon
MDA-MB-231 breast = tested on: MDA-MB-231 breast
OVCAR-5 ovarian = tested on: OVCAR-5 ovarian
COLO 205 colon = tested on: COLO 205 colon
CAKI-1 renal = tested on: CAKI-1 renal
SK-OV-3 ovarian = tested on: SK-OV-3 ovarian
IGROV1 ovarian = tested on: IGROV1 ovarian
UACC-257 melanoma = tested on: UACC-257 melanoma
LOX IMVI melanoma = tested on: LOX IMVI melanoma
NCI/ADR-RES ovarian = tested on: NCI/ADR-RES ovarian
SF-295 CNS = tested on: SF-295 CNS
NCI-H460 lung = tested on: NCI-H460 lung
SNB-75 CNS = tested on: SNB-75 CNS

SMILES: CCOC(=O)c1c(SCCCN2CCCCC2)n(-c2ccccc2)c(=S)n(-c2ccccc2)c1=O
- TGI (A549 NSCLC): 33.9 µM
- TGI (SF-539 CNS): 27.9 µM
- TGI (A498 renal): 35.6 µM
- TGI (SF-268 CNS): > 100 µM
- TGI (MDA-N): 28.5 µM
- TGI (MDA-MB-435): 29.7 µM
- TGI (SK-MEL-5 melanoma): 30.1 µM
- TGI (MOLT-4 leukemia): 35 µM
- TGI (SR leukemia): 67 µM
- TGI (HS 578T breast): 46.5 µM
- TGI (KM12 colon): 34 µM
- TGI (MALME-3M melanoma): 29.8 µM
- TGI (SK-MEL-28 melanoma): 31.9 µM
- TGI (TK-10 renal): 34.8 µM
- TGI (CCRF-CEM leukemia): 49.3 µM
- TGI (DU-145 prostate): 29.9 µM
- TGI (NCI-H23 lung): 33.9 µM
- TGI (UO-31 renal): 29.1 µM
- TGI (SN12C renal): 29.7 µM
- TGI (M14 melanoma): 31.9 µM
- TGI (U251 CNS): 30.5 µM
- TGI (MCF7 breast): 37.6 µM
- TGI (NCI-H522 lung): 34.9 µM
- TGI (HOP-92 NSCLC): 29.1 µM
- TGI (K-562 leukemia): 41.3 µM
- TGI (HCC-2998 colon): 31.1 µM
- TGI (UACC-62 melanoma): 25.2 µM
- TGI (HOP-62 NSCLC): > 100 µM
- TGI (SK-MEL-2 melanoma): 30.9 µM
- TGI (PC-3 prostate): 30 µM
- TGI (RPMI-8226 leukemia): > 100 µM
- TGI (OVCAR-3 ovarian): 30.4 µM
- TGI (NCI-H226 lung): 34 µM
- TGI (HT29 colon): 37.5 µM
- TGI (EKVX NSCLC): 91.8 µM
- TGI (786-0 renal): 13.5 µM
- TGI (RXF 393 renal): 32.2 µM
- TGI (OVCAR-4 ovarian): 31.5 µM
- TGI (HL-60(TB) leukemia): 7.69 µM
- TGI (OVCAR-8 ovarian): 33.6 µM
- TGI (SW-620 colon): 35.4 µM
- TGI (T-47D breast): 32.6 µM
- TGI (ACHN renal): 44.7 µM
- TGI (HCT-116 colon): 24.8 µM
- TGI (SNB-19 CNS): 31.4 µM
- TGI (HCT-15 colon): 33.2 µM
- TGI (MDA-MB-231 breast): 46.1 µM
- TGI (OVCAR-5 ovarian): 34.2 µM
- TGI (COLO 205 colon): 32 µM

SMILES: COc1ccc(C=C2C(=O)NC(=S)NC2=O)c2ccccc12
- TGI (SF-539 CNS): 57.7 µM
- TGI (A498 renal): 0.479 µM
- TGI (SF-268 CNS): > 100 µM
- TGI (MDA-N): 40.6 µM
- TGI (MDA-MB-435): > 100 µM
- TGI (SK-MEL-5 melanoma): > 100 µM
- TGI (MOLT-4 leukemia): > 100 µM
- TGI (CAKI-1 renal): > 100 µM
- TGI (SR leukemia): 87.1 µM
- TGI (HS 578T breast): 60.9 µM
- TGI (KM12 colon): > 100 µM
- TGI (SK-OV-3 ovarian): > 100 µM
- TGI (SK-MEL-28 melanoma): > 100 µM
- TGI (TK-10 renal): 58.2 µM
- TGI (CCRF-CEM leukemia): > 100 µM
- TGI (DU-145 prostate): 64.7 µM
- TGI (NCI-H23 lung): > 100 µM
- TGI (UO-31 renal): > 100 µM
- TGI (M14 melanoma): > 100 µM
- TGI (U251 CNS): 83.3 µM
- TGI (MCF7 breast): > 100 µM
- TGI (NCI-H522 lung): > 100 µM
- TGI (HOP-92 NSCLC): > 100 µM
- TGI (K-562 leukemia): > 100 µM
- TGI (HCC-2998 colon): > 100 µM
- TGI (HOP-62 NSCLC): > 100 µM
- TGI (SK-MEL-2 melanoma): 66.5 µM
- TGI (PC-3 prostate): 83.3 µM
- TGI (RPMI-8226 leukemia): > 100 µM
- TGI (OVCAR-3 ovarian): 75.7 µM
- TGI (NCI-H226 lung): 0.7 µM
- TGI (IGROV1 ovarian): > 100 µM
- TGI (UACC-257 melanoma): 41.5 µM
- TGI (LOX IMVI melanoma): > 100 µM
- TGI (HT29 colon): 77.3 µM
- TGI (EKVX NSCLC): > 100 µM
- TGI (786-0 renal): > 100 µM
- TGI (RXF 393 renal): 51.1 µM
- TGI (OVCAR-4 ovarian): > 100 µM
- TGI (HL-60(TB) leukemia): 52 µM
- TGI (OVCAR-8 ovarian): > 100 µM
- TGI (SW-620 colon): > 100 µM
- TGI (NCI/ADR-RES ovarian): > 100 µM
- TGI (SF-295 CNS): > 100 µM
- TGI (T-47D breast): > 100 µM
- TGI (ACHN renal): > 100 µM
- TGI (HCT-116 colon): > 100 µM
- TGI (NCI-H460 lung): > 100 µM
- TGI (HCT-15 colon): > 100 µM
- TGI (MDA-MB-231 breast): > 100 µM
- TGI (OVCAR-5 ovarian): > 100 µM

SMILES: Nc1nc2c(ncn2C2C=CC(COS(N)(=O)=O)C2)c(=O)[nH]1 (stereo unspecified)
- TGI (A549 NSCLC): > 100 µM
- TGI (SF-539 CNS): > 100 µM
- TGI (SF-268 CNS): > 100 µM
- TGI (MDA-N): > 100 µM
- TGI (MDA-MB-435): > 100 µM
- TGI (SK-MEL-5 melanoma): > 100 µM
- TGI (MOLT-4 leukemia): > 100 µM
- TGI (CAKI-1 renal): > 100 µM
- TGI (SR leukemia): > 100 µM
- TGI (HS 578T breast): > 100 µM
- TGI (KM12 colon): > 100 µM
- TGI (SK-OV-3 ovarian): > 100 µM
- TGI (MALME-3M melanoma): > 100 µM
- TGI (SK-MEL-28 melanoma): > 100 µM
- TGI (TK-10 renal): > 100 µM
- TGI (CCRF-CEM leukemia): > 100 µM
- TGI (DU-145 prostate): > 100 µM
- TGI (NCI-H23 lung): > 100 µM
- TGI (UO-31 renal): > 100 µM
- TGI (SN12C renal): > 100 µM
- TGI (M14 melanoma): > 100 µM
- TGI (U251 CNS): > 100 µM
- TGI (MCF7 breast): > 100 µM
- TGI (HOP-92 NSCLC): > 100 µM
- TGI (K-562 leukemia): > 100 µM
- TGI (HCC-2998 colon): > 100 µM
- TGI (UACC-62 melanoma): > 100 µM
- TGI (HOP-62 NSCLC): > 100 µM
- TGI (SK-MEL-2 melanoma): > 100 µM
- TGI (PC-3 prostate): > 100 µM
- TGI (RPMI-8226 leukemia): > 100 µM
- TGI (OVCAR-3 ovarian): > 100 µM
- TGI (NCI-H226 lung): > 100 µM
- TGI (IGROV1 ovarian): > 100 µM
- TGI (UACC-257 melanoma): > 100 µM
- TGI (LOX IMVI melanoma): > 100 µM
- TGI (HT29 colon): > 100 µM
- TGI (EKVX NSCLC): > 100 µM
- TGI (786-0 renal): > 100 µM
- TGI (RXF 393 renal): > 100 µM
- TGI (OVCAR-4 ovarian): > 100 µM
- TGI (HL-60(TB) leukemia): > 100 µM
- TGI (OVCAR-8 ovarian): > 100 µM
- TGI (SW-620 colon): > 100 µM
- TGI (NCI/ADR-RES ovarian): > 100 µM
- TGI (SNB-75 CNS): > 100 µM
- TGI (SF-295 CNS): > 100 µM
- TGI (T-47D breast): > 100 µM
- TGI (ACHN renal): > 100 µM
- TGI (HCT-116 colon): > 100 µM
- TGI (NCI-H460 lung): > 100 µM
- TGI (SNB-19 CNS): > 100 µM
- TGI (HCT-15 colon): > 100 µM
- TGI (MDA-MB-231 breast): > 100 µM
- TGI (OVCAR-5 ovarian): > 100 µM
- TGI (COLO 205 colon): > 100 µM
